Like-named read-outs stand apart in the source and are kept apart here.
What was measured:
[1] = plasma protein binding (rapid equilibrium dialysis); format: in vitro ADME; conditions: read-out: Plasma Protein Binding % bound (converted)
Protocol: Pharmacokinetic data were obtained for compound 1o at the Sanford-Burnham Medical Research Institute according to established procedures. Compound solubility in an aqueous solution was measured using an automated kinetic solubility method. The concentration of the compound in a saturated pH-buffered aqueous solution was determined via UV absorbance (250–498 nm) and compared with the spectra of a precipitation-free reference solution. The plasma stability of the compound was determined at a single concentration using species-specific plasma. The percentage of parent compound remaining after 3 h was determined via LC-MS/MS. The percentage of compound 1o bound to plasma proteins was determined through rapid equilibrium dialysis and quantified via LC-MS/MS. Metabolic stability of the compound was determined at a single concentration using species-specific liver microsomes that contained cytochrome P450s, flavin-monooxygenases, carboxyl-esterases, epoxide hydrolases, and other drug-metabolizing enzymes. The quantification was carried out via LC-MS/MS. Membrane permeability of compound 1o was measured using an in vitro model for the passive transport from the gastrointestinal tract into the blood system. A double-sink parallel artificial membrane permeability assay PAMPA, in a 96-well format was employed.

[2] = tested on: Arthroderma benhamiae JMRC:ST:35888; test: spore inhibition test; format: cell-based; conditions: 72 h
Protocol: (§1) The following test organisms were used for their susceptibility to compounds 1o and 2o: Alternaria alternata JMRC:SF:09317, Arthroderma benhamiae JMRC:ST:35888, Aspergillus fumigatus JMRC:Afum:00073=ATCC 46645, Aspergillus terreus JMRC:SF:06307, Candida albicans JMRC:ST:35864, Lichtheimia corymbifera JMRC:SF:09682, Penicillium chrysogenum JMRC:SF:10137, Rhizopus arrhizus (syn. R. oryzae) JMRC:SF:05857=ATCC 56536, CBS 112.07.
(§2) Fungi were grown on 3% malt extract solidified medium for 1 to 2 weeks at room temperature. Then the plates were washed with 7 ml sterile distilled water, and the spore suspension was filtered through 4 layers of sterile Miracloth (Kalbiochem, USA) to remove the hyphae. The concentration of the spore suspension was set to 2 × 10^4 conidia ml^−1 for the in vitro assays.
(§3) The spore inhibition assay took place in 96-well microplates (flat base). 50 μl of the prepared spore suspension was seeded and then mixed with 50 μl of the respective inhibitor substance. Tests were started with end concentrations of 1 mg ml^−1 and were then reduced in a minimum of 10 halving steps. Thus a 2 mg ml^−1 stock solution diluted in half ten times with solvent (distilled water, 2% DMSO in distilled water, or 2% DMF in distilled water) and each 50 μl was transferred to 50 μl spore suspension. For each test substance, 12 holes on the microtiter plate were filled. After 24 h incubation (25 °C), the germination of the spores was macroscopically and microscopically examined directly in the microtiter plate via measurement of the optical density and light microscopy using an inverse stereomicroscope with subsequent photodocumentation, respectively. If necessary, the plates were further incubated for another 24 or 48 h, depending on the extent of fungal germination.

[3] = tested on: Candida albicans JMRC:ST:35864; test: spore inhibition test; format: cell-based; conditions: 48 h
Protocol: as §1, §2, §3

[4] = tested on: Aspergillus fumigatus JMRC:Afum:00073; test: spore inhibition test; format: cell-based; conditions: 48 h; start concentration 1 mg/ml (1o, 2o), 100 µg/ml (Amphotericin B)
Protocol: as §1, §2, §3

[5] = tested on: Lichtheimia corymbifera JMRC:SF:09682; test: spore inhibition test; format: cell-based; conditions: 48 h; start concentration 1 mg/ml (1o, 2o), 100 µg/ml (Amphotericin B)
Protocol: as §1, §2, §3

[6] = tested on: Aspergillus terreus JMRC:SF:06307; test: spore inhibition test; format: cell-based; conditions: 48 h; start concentration 1 mg/ml (1o, 2o), 100 µg/ml (Amphotericin B)
Protocol: as §1, §2, §3

in vivo = test: in vivo; parameters: species or system C57BL/6 mice; conditions: C57BL/6, mouse
Protocol: (§4) The compound was applied at an accumulative dose of 100 mg kg^−1 (per os (p.o.). as well as intraperitoneally (i.p.)). The first application was 5 mg kg^−1, 2 h later 15 mg kg^−1, 2 h later 30 mg kg^−1 and again 2 h later 50 mg kg^−1. […] Moreover, we performed pharmacokinetics studies in mice, dosing i.v., i.p. and p.o. (Supplementary Table 5). […] In contrast, high exposure and sustained levels of ∼2 μM were obtained after i.p. dosing at 100 mg kg^−1.
Parameter (n=3/time point)
Supplementary Table 5. Mouse pharmacokinetics of compound 1o.

[7] = acute toxicity in vivo model; parameters: species or system mice; conditions: accumulative dose 100 mg kg−1 (5, 15, 30, 50 mg kg−1 at 2 h intervals), p.o. and i.p.
Protocol: as §4
In addition, cytotoxicity tests with compound 1o were carried out on immortalized human hepatocytes, Fa2N-4 cells, resulting in an LC50>50 μM. The best compound 1o has furthermore been tested in an acute toxicity in vivo model at the Swiss Tropical Institute, Basel.

[8] = spectrophotometric titration by Fe(III); format: physicochemical; conditions: 0.2 M HEPES pH 7.5 + DMSO (1:1 v/v), 25.0 °C
Protocol: Supplementary Figure 17. (left) Spectrophotometric titration of the substrates 1o and 2o by Cu(II) and Fe(III) and (right) electronic spectra of the free substrates and of corresponding metal complexes. Solvent: 0.2 M aqueous sodium HEPES buffer pH 7.5 + DMSO (1:1 v/v); T = 25.0 […]
were prepared in CH3CN (5 mM). Haematin and the substrates were mixed together in […]
The absorption spectrophotometric […]
each addition of the substrate. […]
spectrophotometric data with the Specfit program. The uncertainties on the log K values are given as 3σ with σ = standard deviation. Origin 7.0 was used to process the analytical

[9] = start concentration 1 mg/ml (1o, 2o), 100 µg/ml (Amphotericin B)
[10] = start concentration 1 mg/ml, given in mg

Work on `COc1ccc2c(c1)CCC1C2CC[C@@]2(C)C1CC[C@H]2NCc1cc2ccccc2cc1O` (stereo partly shown) [1o] yielded a fraction unbound at 1 µM ([1]; Human) of 0.0087, a fraction unbound at 10 µM ([1]; Human) of 0.0094 and a fraction unbound at 1 µM ([1]; Mouse) of 0.0094. For the same compound, the fraction unbound at 10 µM ([1]; Mouse) was 0.0107, the “antifungal profile, 1st value = microscopic visualization-based observation, Arthroderma benhamiae” value [2, 9] was 500 and the “antifungal profile, 2nd value = optical density-based observation, Arthroderma benhamiae” value [2, 10] was 1 mg. The “antifungal profile, 2nd value = optical density-based observation, Candida albicans” value [3, 9] was 500, the “antifungal profile, 1st value = microscopic visualization-based observation, Candida albicans” value [3, 10] was 1 mg and the “antifungal profile, 1st value = microscopic visualization-based observation, Aspergillus fumigatus” value [4] was 250. The “antifungal profile, 2nd value = optical density-based observation, Aspergillus fumigatus” value [4] was 250, the “antifungal profile, 1st value = microscopic visualization-based observation, Lichtheimia corymbifera” value [5] was 500 and the “antifungal profile, 2nd value = optical density-based observation, Lichtheimia corymbifera” value [5] was 62.5. For the same compound, the “antifungal profile, 1st value = microscopic visualization-based observation, Aspergillus terreus” value [6] was 250, the “antifungal profile, 2nd value = optical density-based observation, Aspergillus terreus” value [6] was 125 and the AUC(0-t) (in vivo; ip, 100 mg/kg) was 13000 ng·h/mL. It also gave a Cmax (in vivo; ip, 100 mg/kg) of 850 ng/mL, a Tmax (in vivo; ip, 100 mg/kg) of 3 h and a bioavailability (in vivo; ip, 100 mg/kg) of 24%. For the same compound, the half-life (in vivo; ip, 100 mg/kg) was over 8 h, the AUC(0-t) (in vivo; iv, 1 mg/kg) was 567 ng·h/mL and the Vd (in vivo; iv, 1 mg/kg) was 6.4 L/kg. For the same compound, the clearance (in vivo; iv, 1 mg/kg) was 29.6 mL/min/kg, the half-life (in vivo; iv, 1 mg/kg) was over 8 h and the AUC(0-t) (in vivo; po, 100 mg/kg) was 622 ng·h/mL. The Cmax (in vivo; po, 100 mg/kg) was 43 ng/mL, the Tmax (in vivo; po, 100 mg/kg) was 8.25 h and the bioavailability (in vivo; po, 100 mg/kg) was under 5%. The half-life (in vivo; po, 100 mg/kg) was over 8 h and the acute toxicity symptoms [7] was “No acute toxicity symptoms were observed”.
For `COc1ccc2c(c1)CCC1C2CC[C@@]2(C)C1CC[C@@H]2NCc1cc2ccccc2cc1O` (stereo partly shown) [2o], the “log K2o.Fe” value [8] was 4.3, the “antifungal profile, 1st value = microscopic visualization-based observation, Arthroderma benhamiae” value [2, 9] was 31.2 and the “antifungal profile, 2nd value = optical density-based observation, Arthroderma benhamiae” value [2, 9] was 2. For the same compound, the “antifungal profile, 1st value = microscopic visualization-based observation, Candida albicans” value [3, 9] was 500, the “antifungal profile, 2nd value = optical density-based observation, Candida albicans” value [3, 9] was 250 and the “antifungal profile, 1st value = microscopic visualization-based observation, Aspergillus fumigatus” value [4] was 250. For the same compound, the “antifungal profile, 2nd value = optical density-based observation, Aspergillus fumigatus” value [4] was 125, the “antifungal profile, 1st value = microscopic visualization-based observation, Lichtheimia corymbifera” value [5] was 62.5 and the “antifungal profile, 2nd value = optical density-based observation, Lichtheimia corymbifera” value [5] was 7.8. For the same compound, the “antifungal profile, 1st value = microscopic visualization-based observation, Aspergillus terreus” value [6] was 250 and the “antifungal profile, 2nd value = optical density-based observation, Aspergillus terreus” value [6] was 4.

— publication PMC5321741, “Arylmethylamino steroids as antiparasitic agents” (Nature Communications, 2017)
